≈ marks a conversion by molar mass, not a printed value.

The test system of experiment [1] is Mycobacterium tuberculosis. Description: Antibacterial activity against Mycobacterium tuberculosis H331. The experiment is classed as functional.
Experiment [2] concerns Mycobacterium tuberculosis. Nature of the experiment: Antibacterial activity against Mycobacterium tuberculosis H172. It counts as functional.
Experiment [3] concerns Mycobacterium tuberculosis. Description: Antibacterial activity against human Mycobacterium tuberculosis H37Rv. The experiment is classed as functional.
Another experiment concerns Staphylococcus aureus. Description: Antibacterial activity against Staphylococcus aureus ATCC 25923. The experiment is classed as functional.
Experiment [4] deals with Mycobacterium tuberculosis. Nature of the experiment: Antibacterial activity against Mycobacterium tuberculosis H242. It counts as functional.
Experiment [5] relates to Cryptococcus neoformans. Nature of the experiment: Antifungal activity against Cryptococcus neoformans after 24 hr incubation.
In experiment [6] the test system is Candida parapsilosis. Description: Antifungal activity against Candida parapsilosis after 24 hr incubation. The experiment is classed as functional. The conditions noted are these: Lodderomyces parapsilosis.
The subject of another experiment is Escherichia coli. Nature of the experiment: Antibacterial activity against Escherichia coli ATCC 25922. It counts as functional.
The test system of experiment [7] is Nakaseomyces glabratus. Nature of the experiment: Antifungal activity against Candida glabrata after 48 hr incubation. It counts as functional.
Experiment [8] concerns Candida albicans. Description: Antifungal activity against Candida albicans after 24 hr incubation. The experiment is classed as functional.
Experiment [9] relates to Candida albicans. Nature of the experiment: Antifungal activity against Candida albicans after 48 hr incubation. It counts as functional.
Experiment [10] concerns Candida parapsilosis. Nature of the experiment: Antifungal activity against Candida parapsilosis after 48 hr incubation. The experiment is classed as functional. The conditions noted are these: Lodderomyces parapsilosis.
For experiment [11], the system named is Cryptococcus neoformans. Nature of the experiment: Antifungal activity against Cryptococcus neoformans after 48 hr incubation.
Experiment [12] concerns Nakaseomyces glabratus. Nature of the experiment: Antifungal activity against Candida glabrata after 24 hr incubation. It counts as functional.

One may read the MIC as the lowest concentration that inhibits growth of the organism. A low value points to greater potency. On to `O=C(O)c1cn(C2CC2)c2cc(N3CCNCC3)c(F)cc2c1=O` [CIPROFLOXACIN], for which the MIC in experiment [1] worked out at 0.125 mg/L (≈ 0.377 µM); in [2], 0.25 mg/L (≈ 0.754 µM); in [3] it was 0.25 mg/L (≈ 0.754 µM); in the experiment on Staphylococcus aureus, 0.5 mg/L (≈ 1.51 µM); in experiment [4], 0.125 mg/L (≈ 0.377 µM).
Take `CCCCCCCC/C=C/CCCCCCCCCCCC[C@@H](O)C(=O)N[C@@H](CO[C@@H]1OC(CO)[C@@H](O)C(O)C1O)[C@H](O)[C@H](O)CCC/C=C/CCCCCCCCC` (some centres undefined): the minimum inhibitory concentration (MIC) was 64 mg/L (≈ 76 µM) with Cryptococcus neoformans [5]; over 128 mg/L against Candida parapsilosis [6]; 160 mg/L (≈ 190 µM) in the experiment on Escherichia coli; over 128 mg/L in the experiment on Nakaseomyces glabratus [7]; over 160 mg/L in experiment [1]; over 128 mg/L against Candida albicans [8]. In addition, the MIC in the experiment with Candida albicans [9] is over 128 mg/L; in [2], over 160 mg/L; against Candida parapsilosis [10], over 128 mg/L; against Cryptococcus neoformans [11], over 128 mg/L; in experiment [3] it was 160 mg/L (≈ 190 µM); in the experiment on Nakaseomyces glabratus [12], over 128 mg/L. Besides, the MIC in the experiment on Staphylococcus aureus was 160 mg/L (≈ 190 µM); in experiment [4], over 160 mg/L.
Regarding `CCCCCCCC/C=C/CCCCCCCCCCCCCC[C@@H](O)C(=O)N[C@@H](CO[C@@H]1OC(CO)[C@@H](O)C(O)C1O)[C@H](O)[C@H](O)CCC/C=C/CCCCCCCCC` (some centres undefined), the MIC in the experiment on Cryptococcus neoformans [5] was 128 mg/L (≈ 147 µM); with Candida parapsilosis [6] it was over 128 mg/L; in the experiment on Escherichia coli, over 160 mg/L; in the experiment with Nakaseomyces glabratus [7] it was over 128 mg/L; in experiment [1], 40 mg/L (≈ 46 µM); in the experiment on Candida albicans [8], over 128 mg/L. The MIC against Candida albicans [9] is over 128 mg/L; in [2], 40 mg/L (≈ 46 µM); against Candida parapsilosis [10] it was over 128 mg/L; against Cryptococcus neoformans [11] it was over 128 mg/L; in experiment [3], 40 mg/L (≈ 46 µM); in the experiment on Nakaseomyces glabratus [12], over 128 mg/L. In addition, the minimal inhibitory concentration (MIC) against Staphylococcus aureus is over 160 mg/L; in experiment [4], 80 mg/L (≈ 91.9 µM).
Turning to `Clc1ccc(COC(Cn2ccnc2)c2ccc(Cl)cc2Cl)c(Cl)c1` (centres undefined) [MICONAZOLE], the MIC against Cryptococcus neoformans [5] was 0.156 mg/L (≈ 0.375 µM); in the experiment with Candida parapsilosis [6], 0.625 mg/L (≈ 1.5 µM); with Nakaseomyces glabratus [7], 10 mg/L (≈ 24 µM); in the experiment on Candida albicans [8] it was 2.5 mg/L (≈ 6.01 µM); with Candida albicans [9], 40 mg/L (≈ 96.1 µM); against Candida parapsilosis [10] it was 1.25 mg/L (≈ 3 µM). In addition, the MIC in the experiment with Cryptococcus neoformans [11] is 0.156 mg/L (≈ 0.375 µM); in the experiment on Nakaseomyces glabratus [12], 5 mg/L (≈ 12 µM).
Consider `CCCCCCCCC/C=C/CCC[C@@H](O)[C@@H](O)[C@H](CO[C@@H]1OC(CO)[C@@H](O)C(O)C1O)NC(=O)[C@H](O)CCCCCCCCCCCCCCCCCCCCCC` (some centres undefined), for which the MIC against Cryptococcus neoformans [5] is 128 mg/L (≈ 152 µM); in the experiment on Candida parapsilosis [6], over 128 mg/L; with Escherichia coli it was over 160 mg/L; with Nakaseomyces glabratus [7], over 128 mg/L; in experiment [1] it was over 160 mg/L; in the experiment with Candida albicans [8], over 128 mg/L. Also, the minimal inhibitory concentration (MIC) was over 128 mg/L with Candida albicans [9]; over 160 mg/L in [2]; over 128 mg/L with Candida parapsilosis [10]; over 128 mg/L against Cryptococcus neoformans [11]; over 160 mg/L in experiment [3]; over 128 mg/L in the experiment with Nakaseomyces glabratus [12]. For the same molecule, the MIC (in the experiment on Staphylococcus aureus; in experiment [4]) was over 160 mg/L in each case.
Regarding `CCCCCCCCC/C=C/CC/C=C/[C@@H](O)[C@H](CO[C@@H]1OC(CO)[C@@H](O)C(O)C1O)NC(=O)[C@H](O)CCCCCCCCCCCCCC` (some centres undefined), the minimum inhibitory concentration (MIC) against Cryptococcus neoformans [5] was 128 mg/L (≈ 179 µM); in the experiment with Candida parapsilosis [6], over 128 mg/L; with Escherichia coli, over 160 mg/L; with Nakaseomyces glabratus [7], over 128 mg/L; in experiment [1], over 160 mg/L; against Candida albicans [8] it was over 128 mg/L. The MIC against Candida albicans [9] was over 128 mg/L; in experiment [2], over 160 mg/L; against Candida parapsilosis [10], over 128 mg/L; against Cryptococcus neoformans [11] it was over 128 mg/L; in experiment [3], over 160 mg/L; in the experiment on Nakaseomyces glabratus [12] it was over 128 mg/L. In addition, the MIC (in the experiment on Staphylococcus aureus; in [4]) was over 160 mg/L throughout.

Values taken from ChEMBL document CHEMBL1136478, “New cerebrosides from Euphorbia peplis L.: antimicrobial activity evaluation” (2003).
